# According to PubChem BioAssay (NCI):
#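 Compound exposure: 48 hours, 5 concentrations, 96-well plates. GI50 is the concentration that inhibits growth by half. TGI: concentration producing complete growth inhibition.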
# What was measured:
# Test in all cases: NCI tumour cell line growth inhibition, 48 h
# [1] = tested on: SNB-75 CNS
# [2] = tested on: CAKI-1 renal
# [3] = tested on: MALME-3M melanoma
# [4] = tested on: T-47D breast
# [5] = tested on: NCI-H226 lung
# [6] = tested on: CCRF-CEM leukemia
# [7] = tested on: LOX IMVI melanoma
# [8] = tested on: HCT-116 colon
# [9] = tested on: NCI-H23 lung
# [10] = tested on: A498 renal
# [11] = tested on: SF-295 CNS
# [12] = tested on: SW-620 colon
# [13] = tested on: SK-MEL-5 melanoma
# [14] = tested on: 786-0 renal
# [15] = tested on: DU-145 prostate
# [16] = tested on: HL-60(TB) leukemia
# [17] = tested on: UACC-257 melanoma
# [18] = tested on: SK-MEL-28 melanoma
# [19] = tested on: RPMI-8226 leukemia
# [20] = tested on: TK-10 renal
# [21] = tested on: HT29 colon
# [22] = tested on: KM12 colon
# [23] = tested on: A549 NSCLC
# [24] = tested on: HS 578T breast
# [25] = tested on: ACHN renal
# [26] = tested on: M14 melanoma
# [27] = tested on: SK-MEL-2 melanoma
# [28] = tested on: SN12C renal
# [29] = tested on: HOP-62 NSCLC
# [30] = tested on: K-562 leukemia
# [31] = tested on: MDA-MB-435
# [32] = tested on: OVCAR-8 ovarian
# [33] = tested on: BT-549 breast
# [34] = tested on: COLO 205 colon
# [35] = tested on: OVCAR-3 ovarian
# [36] = tested on: UACC-62 melanoma
# [37] = tested on: NCI/ADR-RES ovarian
# [38] = tested on: IGROV1 ovarian
# [39] = tested on: EKVX NSCLC
# [40] = tested on: RXF 393 renal
# [41] = tested on: SF-539 CNS
# [42] = tested on: HOP-92 NSCLC
# [43] = tested on: OVCAR-4 ovarian
# [44] = tested on: PC-3 prostate
# [45] = tested on: HCC-2998 colon
# [46] = tested on: HCT-15 colon
# [47] = tested on: UO-31 renal
# [48] = tested on: SR leukemia
# [49] = tested on: NCI-H522 lung
# [50] = tested on: SK-OV-3 ovarian
# [51] = tested on: U251 CNS
# [52] = tested on: MDA-MB-231 breast
# [53] = tested on: OVCAR-5 ovarian
smiles,measurement,setting,value
CO/N=C(\COc1ccc2c(=O)cc(-c3ccccc3)oc2c1)c1ccc(OC)cc1,GI50,[1],38.2 µM
same,TGI,[1],> 100 µM
same,GI50,[2],24.9 µM
same,TGI,[2],70.3 µM
same,GI50,[3],> 100 µM
same,TGI,[3],> 100 µM
same,GI50,[4],53.5 µM
same,TGI,[4],> 100 µM
same,GI50,[5],> 100 µM
same,TGI,[5],> 100 µM
same,GI50,[6],> 100 µM
same,TGI,[6],> 100 µM
same,GI50,[7],> 100 µM
same,TGI,[7],> 100 µM
same,GI50,[8],> 100 µM
same,TGI,[8],> 100 µM
same,GI50,[9],> 100 µM
same,TGI,[9],> 100 µM
same,GI50,[10],90.9 µM
same,TGI,[10],> 100 µM
same,GI50,[11],21 µM
same,TGI,[11],46.5 µM
same,GI50,[12],> 100 µM
same,TGI,[12],> 100 µM
same,GI50,[13],> 100 µM
same,TGI,[13],> 100 µM
same,GI50,[14],> 100 µM
same,TGI,[14],> 100 µM
same,GI50,[15],> 100 µM
same,TGI,[15],> 100 µM
same,GI50,[16],> 100 µM
same,TGI,[16],> 100 µM
same,GI50,[17],> 100 µM
same,TGI,[17],> 100 µM
same,GI50,[18],> 100 µM
same,TGI,[18],> 100 µM
same,GI50,[19],74 µM
same,TGI,[19],> 100 µM
same,GI50,[20],> 100 µM
same,TGI,[20],> 100 µM
same,GI50,[21],> 100 µM
same,TGI,[21],> 100 µM
same,GI50,[22],81.4 µM
same,TGI,[22],> 100 µM
same,GI50,[23],> 100 µM
same,TGI,[23],> 100 µM
same,GI50,[24],> 100 µM
same,TGI,[24],> 100 µM
same,GI50,[25],> 100 µM
same,TGI,[25],> 100 µM
same,GI50,[26],> 100 µM
same,TGI,[26],> 100 µM
same,GI50,[27],> 100 µM
same,TGI,[27],> 100 µM
same,GI50,[28],88.2 µM
same,TGI,[28],> 100 µM
same,GI50,[29],> 100 µM
same,TGI,[29],> 100 µM
same,GI50,[30],> 100 µM
same,TGI,[30],> 100 µM
same,GI50,[31],30 µM
same,TGI,[31],> 100 µM
same,GI50,[32],> 100 µM
same,TGI,[32],> 100 µM
same,GI50,[33],> 100 µM
same,TGI,[33],> 100 µM
same,GI50,[34],> 100 µM
same,TGI,[34],> 100 µM
same,GI50,[35],23.2 µM
same,TGI,[35],44.8 µM
same,GI50,[36],> 100 µM
same,TGI,[36],> 100 µM
same,GI50,[37],> 100 µM
same,TGI,[37],> 100 µM
same,GI50,[38],> 100 µM
same,TGI,[38],> 100 µM
same,GI50,[39],> 100 µM
same,TGI,[39],> 100 µM
same,GI50,[40],> 100 µM
same,TGI,[40],> 100 µM
same,GI50,[41],> 100 µM
same,TGI,[41],> 100 µM
same,GI50,[42],20.2 µM
same,TGI,[42],96.4 µM
same,GI50,[43],56.2 µM
same,TGI,[43],> 100 µM
same,GI50,[44],> 100 µM
same,TGI,[44],> 100 µM
same,GI50,[45],> 100 µM
same,TGI,[45],> 100 µM
same,GI50,[46],> 100 µM
same,TGI,[46],> 100 µM
same,GI50,[47],> 100 µM
same,TGI,[47],> 100 µM
same,GI50,[48],> 100 µM
same,TGI,[48],> 100 µM
same,GI50,[49],> 100 µM
same,TGI,[49],> 100 µM
same,GI50,[50],> 100 µM
same,TGI,[50],> 100 µM
same,GI50,[51],> 100 µM
same,TGI,[51],> 100 µM
same,GI50,[52],48.4 µM
same,TGI,[52],> 100 µM
same,GI50,[53],> 100 µM
same,TGI,[53],> 100 µM
